The values that follow come from patent publication US10639284B2, “Immunomodulator compounds” (CHEMOCENTRYX, INC., priority 2016, dated 2020).

For orientation: IC50 means the concentration that gives 50% inhibition.

SMILES strings stand for the structures. Some results are limits rather than exact numbers.

In one experiment the target is human PD-L1 / Human PD-1 (Homo sapiens (Human), UniProt Q9NZQ7). Nature of the experiment: Enzyme-Linked Immunosorbent Assay (ELISA), PD-1/PD-L1 binding.
Chain of human PD-L1 / Human PD-1 (Q9NZQ7 19-239): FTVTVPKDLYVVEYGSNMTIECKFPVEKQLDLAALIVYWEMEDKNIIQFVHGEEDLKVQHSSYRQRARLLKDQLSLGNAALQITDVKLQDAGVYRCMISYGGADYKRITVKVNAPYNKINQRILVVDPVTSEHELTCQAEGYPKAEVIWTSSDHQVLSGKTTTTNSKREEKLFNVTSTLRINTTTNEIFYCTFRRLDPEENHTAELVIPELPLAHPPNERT
Conditions: not given
As to the method: Plates were coated with 1 μg/mL of human PD-L1 (obtained from R&D) in PBS overnight at 4° C. The wells were then blocked with PBS containing 2% BSA in PBS (W/V) with 0.05% TWEEN-20 for 1 hour at 37° C. The plates were washed 3 times with PBS/0.05% TWEEN-20 and the samples were diluted to 1:5 in dilution medium in the ELISA plates. Human PD-1 and biotin 0.3 μg/mL (ACRO Biosystems) were added and incubated for 1 hour at 37° C. then washed 3 times with PBS/0.05% TWEEN-20. A second block was added with PBS containing 2% BSA in PBS (W/V)/0.05% TWEEN-20 for 10 min at 37° C. and was washed 3 times with PBS/0.05% TWEEN-20. Streptavidin-HRP was added for 1 hour at 37° C. then washed 3 times with PBS/0.05% TWEEN-20. TMB substrate was added and reacted for 20 min at 37° C. A stop solution (2 N aqueous H2SO4) was added. The absorbance was read at 450 nm using a micro-plate spectrophotometer.
Compounds in Table 2 and Table 3 were prepared by methods as described in the Examples, and evaluated according to the assay below.
A general note: ELISA stands for enzyme-linked immunosorbent assay.
For `N#Cc1cncc(COc2cc(O[C@H]3CCc4c(-c5ccccc5F)cccc43)c(Cl)cc2CN2CCC(F)CC2)c1` [Example 2.094], the IC50 lay in the range of 100 to 500 nM.

The experiment is the same for the next values; noted with them: Table 2; plate-coated human PD-L1, biotinylated human PD-1; read-out: ELISA IC50.
On to `COc1cccc(-c2cccc3c2CC[C@@H]3Oc2cc(OCc3cncc(C#N)c3)c(CN3CCC(C(N)=O)CC3)cc2Cl)c1Cl` [Example 2.083], for which the IC50 is 100 to 500 nM.
On the same count and under the same terms, with `O=C(O)[C@H](CO)NCc1cc(Cl)c(O[C@H]2CCc3c(-c4ccccc4F)cccc32)cc1OCc1cnc(Cl)nc1` [Example 2.084] the figure was less than 100 nM; with `COc1cccc(-c2cccc3c2CCC3CCOc2cc(OCc3cncc(C#N)c3)c(CN[C@@H](CO)C(=O)O)cc2Cl)c1F` (some centres unmarked) [Example 2.085], 500 to 20000 nM; with `COc1cccc(-c2cccc3c2CCC3CCOc2cc(OCc3cncc(C#N)c3)c(CN3CCC(O)CC3)cc2Cl)c1F` (centres unmarked) [Example 2.086], 500 to 20000 nM.
Same read-out and setting: as for `COc1cccc(-c2cccc3c2CCC3CCOc2cc(OCc3cncc(C#N)c3)c(CN3CCC(O)CC3)cc2Cl)c1F` (centres unmarked) [Example 2.087], the figure is 500 to 20000 nM; as for `COc1cccc(-c2cccc3c2CCC3CCOc2cc(OCc3cncc(C#N)c3)c(CN3CC(O)C3)cc2Cl)c1F` (centres unmarked) [Example 2.088], 500 to 20000 nM.
Still for that read-out and setting: as for `COC(=O)c1cccc(COc2cc(O[C@H]3CCc4c(-c5ccccc5F)cccc43)c(Cl)cc2CN2CCC(O)CC2)c1` [Example 2.089], the figure is 500 to 20000 nM; as for `N#CCCCCOc1cc(O[C@H]2CCc3c(-c4ccccc4F)cccc32)c(Cl)cc1CN1CCC(O)CC1` [Example 2.090], 100 to 500 nM.
For the compound `CC(C)C[C@H](NCc1cc(Cl)c(O[C@H]2CCc3c(-c4ccccc4F)cccc32)cc1OCc1cncc(C#N)c1)C(=O)O` [Example 2.091], the IC50 was 100 to 500 nM.
Still for that read-out and setting: as for `CC(C)C[C@H](NCc1cc(Cl)c(O[C@H]2CCc3c(-c4ccccc4F)cccc32)cc1OCc1cncc(C#N)c1)C(=O)O` [Example 2.092], the figure is 100 to 500 nM; as for `N#Cc1cncc(COc2cc(O[C@H]3CCc4c(-c5ccccc5F)cccc43)c(Cl)cc2CN2CCC(F)CC2)c1` [Example 2.093], 500 to 20000 nM; as for `OC1CCN(Cc2cc(Cl)c(O[C@H]3CCc4c(-c5ccccc5F)cccc43)cc2OCc2ccc(C(F)(F)F)nc2)CC1` [Example 2.095], 500 to 20000 nM.
The same measure, in the same setting: with `OC1CCN(Cc2cc(Cl)c(O[C@H]3CCc4c(-c5ccccc5F)cccc43)cc2OCc2ccc(C(F)(F)F)nc2)CC1` [Example 2.096] the figure was 500 to 20000 nM; with `N#Cc1cncc(COc2cc(O[C@H]3CCc4c(-c5ccccc5F)cccc43)c(Cl)cc2CN2CCC(O)C(F)(F)C2)c1` (some centres unmarked) [Example 2.097], 500 to 20000 nM.
The same measure, in the same setting: as for `C[C@H](NCc1cc(Cl)c(O[C@H]2CCc3c(-c4ccccc4F)cccc32)cc1OCc1cncc(C#N)c1)C(=O)O` [Example 2.098], the figure is less than 100 nM.
Take `C[C@@H](O)[C@H](NCc1cc(Cl)c(O[C@H]2CCc3c(-c4ccccc4F)cccc32)cc1OCc1cncc(C#N)c1)C(=O)O` [Example 2.100]: the IC50 is less than 100 nM.
Same read-out and setting: with `N#Cc1cncc(COc2cc(O[C@H]3CCc4c(-c5ccccc5F)cccc43)c(Cl)cc2CN[C@H](CO)C(=O)O)c1` [Example 2.102] the figure was less than 100 nM.
Same read-out and setting: with `COc1cccc(F)c1-c1cccc2c1CC[C@@H]2Oc1cc(OCc2cncc(C#N)c2)c(CN[C@@H](CO)C(=O)O)cc1Cl` [Example 2.105] the figure was 100 to 500 nM; with `COc1cccc(-c2cccc3c2CC[C@@H]3Oc2cc(OCc3cncc(C#N)c3)c(CN[C@H](C(=O)O)[C@@H](C)O)cc2Cl)c1F` [Example 2.106], less than 100 nM; with `COc1cccc(-c2cccc3c2CC[C@@H]3Oc2cc(OCc3cncc(C#N)c3)c(CN[C@H](CO)C(=O)O)cc2Cl)c1F` [Example 2.107], less than 100 nM.
For `COc1cccc(F)c1-c1cccc2c1CC[C@@H]2Oc1cc(OCc2cncc(C#N)c2)c(CN2CCC(O)CC2)cc1Cl` [Example 2.108], the IC50 was 500 to 20000 nM.
The same measure, in the same setting: as for `OC1CCN(Cc2cc(Cl)c(O[C@H]3CCc4c(-c5ccccc5F)cccc43)cc2OCc2cnc(N3CCC(O)CC3)nc2)CC1` [Example 2.109], the figure is 500 to 20000 nM.
`N#Cc1cccc(COc2cc(O[C@H]3CCc4c(-c5ccccc5F)cccc43)c(Cl)cc2CN2CCC(O)CC2)c1` [Example 2.110]: the IC50 was in the range of 500 to 20000 nM.
The same measure, in the same setting: as for `OC1CCN(Cc2cc(Cl)c(O[C@H]3CCc4c(-c5ccccc5F)cccc43)cc2OCc2cnc(Cl)nc2)CC1` [Example 2.111], the figure is 100 to 500 nM; as for `N#Cc1cncc(-c2cc(O[C@H]3CCc4c(-c5ccccc5F)cccc43)c(Cl)cc2CN2CCC(O)CC2)c1` [Example 2.112], 500 to 20000 nM; as for `N#Cc1cncc(COc2cc(O[C@H]3CCc4c(-c5ccccc5F)cccc43)c(Cl)cc2CN2CC[C@H](O)[C@H](F)C2)c1` [Example 2.113], 500 to 20000 nM.
Still for that read-out and setting: as for `N#Cc1cncc(COc2cc(O[C@H]3CCc4c(-c5ccccc5F)cccc43)c(Cl)cc2CN2CC[C@H](O)[C@@H](F)C2)c1` [Example 2.114], the figure is 500 to 20000 nM; as for `N#Cc1cncc(-c2cc(O[C@H]3CCc4c(-c5ccccc5F)cccc43)c(Cl)cc2CN[C@@H](CO)C(=O)O)c1` [Example 2.115], less than 100 nM; as for `OC1CCN(Cc2cc(Cl)c(O[C@H]3CCc4c(-c5ccccc5F)cccc43)cc2OCc2cccnc2)CC1` [Example 2.116], 500 to 20000 nM.
Still for that read-out and setting: as for `N#Cc1cncc(COc2cc(O[C@H]3CCc4c(-c5ccccc5F)cccc43)c(Cl)cc2CN[C@@H](CCC(=O)O)C(=O)O)c1` [Example 2.117], the figure is less than 100 nM; as for `N#Cc1cncc(COc2cc(O[C@H]3CCc4c(-c5ccccc5F)cccc43)c(Cl)cc2CN[C@@H](CC(N)=O)C(=O)O)c1` [Example 2.118], less than 100 nM; as for `N#Cc1cncc(COc2cc(O[C@H]3CCc4c(-c5ccccc5F)cccc43)c(Cl)cc2CN2CC3(CC(O)C3)C2)c1` [Example 2.119], 100 to 500 nM.
As to `N#Cc1cncc(COc2cc(O[C@H]3CCc4c(-c5ccccc5F)cccc43)c(Cl)cc2CN2CC(F)C2)c1` [Example 2.120], the IC50 is 500 to 20000 nM.
Still for that read-out and setting: with `N#Cc1cccc(-c2cc(O[C@H]3CCc4c(-c5ccccc5F)cccc43)c(Cl)cc2CN[C@@H](CO)C(=O)O)c1` [Example 2.121] the figure was 100 to 500 nM; with `C[C@H](O)[C@@H](NCc1cc(Cl)c(O[C@H]2CCc3c(-c4ccccc4F)cccc32)cc1OCc1cncc(C#N)c1)C(=O)O` [Example 2.122], less than 100 nM.
On the same count and under the same terms, as for `CC(C)[C@H](NCc1cc(Cl)c(O[C@H]2CCc3c(-c4ccccc4F)cccc32)cc1OCc1cncc(C#N)c1)C(=O)O` [Example 2.123], the figure is 100 to 500 nM; as for `NC(=O)COc1cc(O[C@H]2CCc3c(-c4ccccc4F)cccc32)c(Cl)cc1CN[C@@H](CO)C(=O)O` [Example 2.124], 500 to 20000 nM.
The same measure, in the same setting: as for `CCC(O)C(NCc1cc(Cl)c(O[C@H]2CCc3c(-c4ccccc4F)cccc32)cc1OCc1cncc(C#N)c1)C(=O)O` (some centres unmarked) [Example 2.125], the figure is less than 100 nM; as for `C[C@@H](O)[C@H](NCc1cc(Cl)c(O[C@H]2CCc3c(-c4ccccc4F)cccc32)cc1-c1cncc(C#N)c1)C(=O)O` [Example 2.126], 100 to 500 nM; as for `C[C@H](O)[C@H](NCc1cc(Cl)c(O[C@H]2CCc3c(-c4ccccc4F)cccc32)cc1OCc1cncc(C#N)c1)C(=O)O` [Example 2.127], less than 100 nM.
`C[C@@H](O)[C@@H](NCc1cc(Cl)c(O[C@H]2CCc3c(-c4ccccc4F)cccc32)cc1OCc1cncc(C#N)c1)C(=O)O` [Example 2.129]: the IC50 was less than 100 nM.
Same read-out and setting: with `Nc1ncc(COc2cc(O[C@H]3CCc4c(-c5ccccc5F)cccc43)c(Cl)cc2CN2CCC(O)CC2)cn1` [Example 2.130] the figure was 100 to 500 nM.
For `COc1ncc(COc2cc(O[C@H]3CCc4c(-c5ccccc5F)cccc43)c(Cl)cc2CN2CCC(O)CC2)cn1` [Example 2.131], the IC50 was 100 to 500 nM.
Still for that read-out and setting: with `N#Cc1cncc(COc2cc(O[C@H]3CCc4c(-c5ccccc5F)cccc43)c(Cl)cc2CN[C@H](C(=O)O)[C@H](O)c2ccccc2)c1` [Example 2.132] the figure was 100 to 500 nM; with `C[C@@H](O)[C@H](NCc1cc(Cl)c(O[C@H]2CCc3c(-c4ccccc4F)cccc32)cc1OCc1cccnn1)C(=O)O` [Example 2.133], 100 to 500 nM.
`COC[C@H](NCc1cc(Cl)c(O[C@H]2CCc3c(-c4ccccc4F)cccc32)cc1OCc1cncc(C#N)c1)C(=O)O` [Example 2.134]: the IC50 is less than 100 nM.
Same read-out and setting: with `C[C@@H](O)[C@H](NC(=O)CNCc1cc(Cl)c(O[C@H]2CCc3c(-c4ccccc4F)cccc32)cc1OCc1cncc(C#N)c1)C(=O)O` [Example 2.135] the figure was 100 to 500 nM; with `N#Cc1cncc(COc2cc(O[C@@H]3CCc4c(-c5ccccc5F)cccc43)c(Cl)cc2CN2CCC(O)CC2)c1` [Example 2.136], 100 to 500 nM.
Same read-out and setting: as for `C=CC(=O)NCCNCc1cc(Cl)c(O[C@H]2CCc3c(-c4ccccc4F)cccc32)cc1OCc1cncc(C#N)c1` [Example 2.137], the figure is 100 to 500 nM.
On the same count and under the same terms, as for `C[C@@H](O)[C@H](NCc1cc(Cl)c(O[C@@H]2CCc3c(-c4ccccc4F)cccc32)cc1OCc1cncc(C#N)c1)C(=O)O` [Example 2.138], the figure is less than 100 nM; as for `N#Cc1cncc(COc2cc(O[C@@H]3CCc4c(-c5ccccc5F)cccc43)c(Cl)cc2CN[C@@H](CO)C(=O)O)c1` [Example 2.139], less than 100 nM.
On to `COC(=O)[C@H](CO)NCc1cc(Cl)c(O[C@H]2CCc3c(-c4ccccc4F)cccc32)cc1OCc1cncc(C#N)c1` [Example 2.140], for which the IC50 is less than 100 nM.
